In US6022861A, “Ketoheterocyclic inhibitors of factor Xa” (COR Therapeutics, Inc., priority 1995, dated 2000):

What was measured:
prothrombinase complex = prothrombinase complex (Homo sapiens, UniProt P00742); assay: Prothrombinase inhibition assay (plasma free system, Chromozym TH); type: biochemical; settings: read-out: Inhibitory Activity (IC50) Prothrombinase
Experimental: (§1) In the assays for thrombin, prothrombinase and factor Xa, a synthetic chromogenic substrate is added to a solution containing test compound and the enzyme of interest and the residual catalytic activity of that enzyme is determined spectrophotometrically. The IC50 of a compound is determined from the substrate turnover.

[1] = test system: Rabbit Model of Venous Thrombosis; assay: Rabbit deep vein thrombosis model, inhibition of thrombus growth; type: in vivo; settings: for % Inhibition of Thrombosis: rabbit
From the text: (§2) Rabbits were anesthetized with I.M. injections of Ketamine, Xylazine, and Acepromazine cocktail. A standardized protocol consisted of insertion of a thrombogenic cotton thread and copper wire apparatus into the abdominal vena cava of the anesthetized rabbit. A non-occlusive thrombus was allowed to develop in the central venous circulation and inhibition of thrombus growth was used as a measure of the antithrombotic activity of the studied compounds. Test agents or control saline were administered through a marginal ear vein catheter. A femoral vein catheter was used for blood sampling prior to and during steady state infusion of test compound. Initiation of thrombus formation begins immediately after advancement of the cotton thread apparatus into the central venous circulation. Test compounds were administered from time=30 min to time=150 min at which the experiment was terminated. The rabbits were euthanized and the thrombus excised by surgical dissection and characterized by weight and histology. Blood samples were analyzed for changes in hematological and coagulation parameters.

[2] = Coagulation parameters (aPTT, PT) in rabbit venous thrombosis model; type: in vivo; settings: for PT fold increase over baseline / aPTT fold increase over baseline: steady state, mean ± SD
From the text: as §2

factor Xa = factor Xa (Homo sapiens, UniProt P00742); assay: Factor Xa amidolytic assay (chromogenic substrate S-2765); type: biochemical; settings: read-out: Inhibitory Activity (IC50) Factor Xa
factor Xa, sequence (P00742 41-179 limits assumed): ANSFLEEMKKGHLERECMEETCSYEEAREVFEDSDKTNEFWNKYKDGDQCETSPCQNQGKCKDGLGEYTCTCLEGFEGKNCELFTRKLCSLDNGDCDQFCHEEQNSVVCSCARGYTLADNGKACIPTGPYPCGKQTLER
factor Xa, sequence (P00742 235-488 limits assumed): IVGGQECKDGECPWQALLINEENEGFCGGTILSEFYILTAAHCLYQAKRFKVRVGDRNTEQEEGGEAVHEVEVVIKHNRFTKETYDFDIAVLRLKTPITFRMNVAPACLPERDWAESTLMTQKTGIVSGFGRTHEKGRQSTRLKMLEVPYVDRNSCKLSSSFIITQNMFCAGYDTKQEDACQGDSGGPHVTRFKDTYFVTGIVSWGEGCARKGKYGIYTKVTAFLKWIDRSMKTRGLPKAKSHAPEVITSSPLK
Experimental: as §1

thrombin = thrombin (Homo sapiens, UniProt P00734); assay: Thrombin amidolytic assay (Chromozym TH); type: biochemical; settings: read-out: Inhibitory Activity (IC50) Thrombin
Experimental: as §1, with “The compounds of the present invention are dissolved in buffer to give solutions containing concentrations such that assay concentrations range from 0 to 100 μM. In” for “In”
The factor Xa and thrombin assays were performed at room temperature, in 0.02 M Tris·HCl buffer, pH 7.5, containing 0.15 M NaCl. The rates of hydrolysis of the para-nitroanilide substrate S-2765 (Chromogenix) for factor Xa, and the substrate Chromozym TH (Boehringer Mannheim) for thrombin following preincubation of the enzyme with inhibitor for 5 minutes at room temperature, and were determined using the Softmax 96-well plate reader (Molecular Devices), monitored at 405 nm to measure the time dependent appearance of p-nitroaniline.

[3] = rabbit, in vivo
From the text: as §2

[4] = highest dose (100 μg/kg+2.57 μg/kg/min)

prothrombinase complex, sequence (P00742 41-179 limits assumed): as the sequence (P00742 41-179 limits assumed) above
prothrombinase complex, sequence (P00742 235-488 limits assumed): as the sequence (P00742 235-488 limits assumed) above
prothrombinase complex, sequence (P12259 29-737 partner limits assumed): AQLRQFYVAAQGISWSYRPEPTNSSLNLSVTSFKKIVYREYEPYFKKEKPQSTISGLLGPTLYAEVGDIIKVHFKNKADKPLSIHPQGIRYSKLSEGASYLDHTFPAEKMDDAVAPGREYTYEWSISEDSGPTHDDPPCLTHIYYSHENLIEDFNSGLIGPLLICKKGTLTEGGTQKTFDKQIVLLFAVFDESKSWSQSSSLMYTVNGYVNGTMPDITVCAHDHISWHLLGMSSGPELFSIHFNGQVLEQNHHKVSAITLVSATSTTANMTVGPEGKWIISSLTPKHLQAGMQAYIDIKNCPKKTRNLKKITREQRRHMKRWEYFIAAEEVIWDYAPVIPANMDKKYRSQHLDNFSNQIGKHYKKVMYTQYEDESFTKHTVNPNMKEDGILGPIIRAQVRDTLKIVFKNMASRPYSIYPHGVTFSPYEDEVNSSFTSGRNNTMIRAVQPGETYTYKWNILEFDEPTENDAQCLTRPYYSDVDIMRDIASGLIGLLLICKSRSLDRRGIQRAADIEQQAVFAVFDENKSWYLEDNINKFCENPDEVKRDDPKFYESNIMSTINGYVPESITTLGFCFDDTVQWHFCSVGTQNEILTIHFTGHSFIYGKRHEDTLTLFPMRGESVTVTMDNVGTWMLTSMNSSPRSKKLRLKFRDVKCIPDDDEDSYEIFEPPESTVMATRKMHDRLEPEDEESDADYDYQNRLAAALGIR
prothrombinase complex, sequence (P12259 1574-2224 partner limits assumed): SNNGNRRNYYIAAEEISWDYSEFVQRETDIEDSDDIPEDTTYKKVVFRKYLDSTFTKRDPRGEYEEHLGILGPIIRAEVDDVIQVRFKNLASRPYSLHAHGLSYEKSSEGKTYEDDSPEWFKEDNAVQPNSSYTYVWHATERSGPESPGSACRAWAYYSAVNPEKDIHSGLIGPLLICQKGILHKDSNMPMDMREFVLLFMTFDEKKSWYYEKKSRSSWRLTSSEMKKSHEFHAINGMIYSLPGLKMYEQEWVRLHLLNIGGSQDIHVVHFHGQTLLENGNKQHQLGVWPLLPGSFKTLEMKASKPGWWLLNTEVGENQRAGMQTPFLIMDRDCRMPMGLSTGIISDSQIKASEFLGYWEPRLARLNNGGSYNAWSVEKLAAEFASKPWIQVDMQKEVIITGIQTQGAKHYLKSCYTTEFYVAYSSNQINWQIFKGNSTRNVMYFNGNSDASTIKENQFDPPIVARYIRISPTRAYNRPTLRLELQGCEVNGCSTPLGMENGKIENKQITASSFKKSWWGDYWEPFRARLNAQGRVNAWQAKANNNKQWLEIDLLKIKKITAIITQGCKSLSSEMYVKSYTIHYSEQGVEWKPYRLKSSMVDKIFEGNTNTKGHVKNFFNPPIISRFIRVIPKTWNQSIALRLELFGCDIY

| Compound | IC50 (prothrombinase complex) [µM] | antithrombotic efficacy in the rabbit venous thrombosis model ([1]; at the higher doses evaluated) | % Inhibition of Thrombosis ([1]; dose regimen 50 + 1.28 (μg/kg + μg/kg/min)) [%] | % Inhibition of Thrombosis ([1]; dose regimen 75 + 1.93 (μg/kg + μg/kg/min)) [%] | % Inhibition of Thrombosis ([1]; dose regimen 100 + 2.57 (μg/kg + μg/kg/min)) [%] | PT fold increase over baseline ([2]; 50 + 1.28 (μg/kg + μg/kg/min)) [fold] | aPTT fold increase over baseline ([2]; 50 + 1.28 (μg/kg + μg/kg/min)) [fold] | PT fold increase over baseline ([2]; 75 + 1.93 (μg/kg + μg/kg/min)) [fold] | aPTT fold increase over baseline ([2]; 75 + 1.93 (μg/kg + μg/kg/min)) [fold] | PT fold increase over baseline ([2]; 100 + 2.57 (μg/kg + μg/kg/min)) [fold] | aPTT fold increase over baseline ([2]; 100 + 2.57 (μg/kg + μg/kg/min)) [fold] | effect on PT prolongation [2, 4] | effect on aPTT prolongation [2, 4] | IC50 (factor Xa) [µM] | IC50 (thrombin) [µM] | effects on hematological parameters [3] |
| --- | --- | --- | --- | --- | --- | --- | --- | --- | --- | --- | --- | --- | --- | --- | --- | --- |
| NC(N)=NCCCC(N)C(=O)NCC(=O)NC(CCCN=C(N)N)C(=O)c1nccs1 [H-D-Arg-Gly-Arg-thiazole, H-(D)-Arg-Gly-Arg-Thiazole] | 0.01 | demonstrated antithrombotic efficacy | -7.84 | 42.95 | 117.72 | 1.00 ± 0.00 | 1.00 ± 0.03 | 1.00 ± 0.00 | 1.02 ± 0.03 | 0.83 ± 0.00 | 1.08 ± 0.02 | no significant effect | no significant effect | 0.011 | 41 | no significant effects |
| N=C(N)NCCC[C@H](NC(=O)CNC(=O)[C@@H](CCCNC(=N)N)NS(=O)(=O)Cc1ccccc1)C(=O)c1nccs1 [BriSO2 -(D)-Arg-Gly-Arg-thiazole, BnSO2 -(D)-Ar g-Gly-Arg-Thiazole] | – | – | – | – | – | – | – | – | – | – | – | – | – | – | 10 | – |
